This is an account of results in patent US5646173A, “Tricyclic pyrrole derivatives useful as 5-HT selective agents” (Hoffmann-La Roche Inc., priority 1993, dated 1997).

Structures can show the parent of a compound that is named as a salt. Where two headings read alike, the source gives them in different places.

The target of one assay is T1, human-5HT1A receptors (Homo sapiens, UniProt P08908).
T1 construct: expressed in transfected cells; host or cells: mouse 3T3 cells
T1 sequence (P08908 1-422): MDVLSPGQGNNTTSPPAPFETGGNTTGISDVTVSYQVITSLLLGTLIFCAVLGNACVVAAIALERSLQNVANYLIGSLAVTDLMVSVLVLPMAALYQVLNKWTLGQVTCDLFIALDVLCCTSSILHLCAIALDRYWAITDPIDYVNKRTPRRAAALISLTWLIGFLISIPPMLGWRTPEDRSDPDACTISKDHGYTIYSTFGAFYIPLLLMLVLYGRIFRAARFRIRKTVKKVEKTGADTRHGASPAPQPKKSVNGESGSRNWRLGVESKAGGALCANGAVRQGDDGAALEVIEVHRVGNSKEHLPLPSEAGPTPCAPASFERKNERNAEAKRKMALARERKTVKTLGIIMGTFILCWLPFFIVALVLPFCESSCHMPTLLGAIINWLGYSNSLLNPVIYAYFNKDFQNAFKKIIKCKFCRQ
Briefly: [3H]-5-HT displacement on recombinant human 5HT1A receptors expressed in 3T3 cells of mice (Method II a). The assay is classed as binding. The source says: [L] is the concentration of ligand and the KD value is the dissociation constant of the ligand.

Assay [1] concerns the target T2, 5HT2C receptor (Rattus norvegicus, UniProt P08909).
T2 sequence (P08909 33-460): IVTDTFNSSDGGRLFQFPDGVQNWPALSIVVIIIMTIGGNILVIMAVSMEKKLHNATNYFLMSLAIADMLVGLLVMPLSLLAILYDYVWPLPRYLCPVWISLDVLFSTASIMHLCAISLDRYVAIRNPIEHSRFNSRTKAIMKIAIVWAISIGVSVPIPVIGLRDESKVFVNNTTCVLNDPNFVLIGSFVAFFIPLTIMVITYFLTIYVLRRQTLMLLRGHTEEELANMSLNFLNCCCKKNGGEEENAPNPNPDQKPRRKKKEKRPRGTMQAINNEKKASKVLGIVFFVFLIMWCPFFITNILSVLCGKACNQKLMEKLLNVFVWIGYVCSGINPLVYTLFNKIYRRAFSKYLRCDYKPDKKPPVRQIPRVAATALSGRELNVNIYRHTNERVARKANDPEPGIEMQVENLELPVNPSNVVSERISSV
The assay is described as follows: [3H]-5-HT binding assay (Method II b). Further details: expressed in transfected cells; host or cells: clonal 5-HT1C cell line. The source says:
b) For the binding to the 5HT2C receptor in accordance with the [3H]-5-HT binding assay according to the method of S. J. Peroutka et al., Brain Research 584, 191-196 (1992).
(§1) The pki values (pki =-log^10 Ki) of the test substances are given. […] [L] is the concentration of ligand and the KD value is the dissociation constant of the ligand.

The target of assay [2] is T2, 5HT2C receptor. Briefly: Penile erection (rats). It is filed as in vivo. Further details: from tissue; host or cells: living rat. Particulars: s.c., number of penile erections within 45 minutes following administration. The protocol:
It has been shown that penile erection is dependent on the stimulation of the 5HT2C receptor (see Berendsen & Broekkamp, Eur. J. Pharmacol, 135, 179-184 (1987)).
The number of penile erections was determined within 45 minutes following administration of the test substance to the animal.

For assay [3], the target named is T3, 5HT2A receptor (Homo sapiens, UniProt P28223).
T3 construct: expressed in transfected cells; host or cells: transfected mammalian cells (inferred from the cited method)
Briefly: [3H]-DOB binding assay (Method II c).
Source text: c) For the binding to the 5HT2A receptor in accordance with the [3H]-DOB binding assay according to the method of T. Branchek et al., Molecular Pharmacology 38, 604-609 (1990).
as §1

The target in assay [4] is T4, 5HT2A receptor (Rattus norvegicus, UniProt P14842).
T4 construct: from tissue; host or cells: rat frontal cortex membranes (inferred from the cited method)
The assay is described as follows: biochemical. It is filed as binding. The procedure: (§2) The binding of the compounds of formula I in accordance with the invention to serotonin receptors was determined in vitro by standard methods. The preparations were investigated in accordance with the assays given hereinafter:
c) For the binding to the 5HT2A receptor in accordance with the ^3 H-ketanserine binding assay according to the method of J. E. Leysen, Molecular Pharmacology 21, 301-304 (1981).

For a further assay, the target named is 5HT1A receptor. Briefly: 3H-8-OH-DPAT binding assay (Method I a). Particulars: read-out: IC50, test method a. The procedure: The binding of the compounds of formula I in accordance with the invention to serotonin receptors was determined in vitro by standard methods. The preparations were investigated in accordance with the assays given hereinafter: […]

For assay [5], the target named is T5, 5HT2C receptor (Sus scrofa, UniProt K7GSR7).
T5 construct: from tissue
T5 sequence (K7GSR7 1-457): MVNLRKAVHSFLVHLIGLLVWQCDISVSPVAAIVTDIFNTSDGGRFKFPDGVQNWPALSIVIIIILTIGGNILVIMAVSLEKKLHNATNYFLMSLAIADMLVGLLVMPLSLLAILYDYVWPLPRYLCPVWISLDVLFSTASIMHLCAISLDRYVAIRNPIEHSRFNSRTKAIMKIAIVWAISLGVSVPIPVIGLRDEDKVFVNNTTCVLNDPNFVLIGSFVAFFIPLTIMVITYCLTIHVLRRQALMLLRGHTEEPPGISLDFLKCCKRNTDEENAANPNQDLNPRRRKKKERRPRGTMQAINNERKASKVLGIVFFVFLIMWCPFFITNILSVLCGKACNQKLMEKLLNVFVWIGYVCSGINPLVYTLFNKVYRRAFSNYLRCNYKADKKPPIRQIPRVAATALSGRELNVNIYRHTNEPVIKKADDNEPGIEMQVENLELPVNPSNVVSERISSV
Briefly: 3H-mesulergine binding assay (Method I b). The protocol:
as §2
b) For the binding to the 5HT2C receptor in accordance with the ^3 H-mesulergine binding assay according to the method of A. Pazos et al., Europ. J. Pharmacol. 106, 539-546 or. D. Hoyer, Receptor Research 8, 59-81 (1988).

Where [6] appears, read: rat, sc, 0.75 h, read-out: ED50.
[7] abbreviates: human 5HT1A, [3H]-5-HT (1 nM), 3T3 cell membranes, Method II, read-out: pki, test method a (converted).
[8] abbreviates: 5HT2C, [3H]-5-HT, Method II, read-out: pki, test method b (converted).

T4 sequence (P14842 whole entry): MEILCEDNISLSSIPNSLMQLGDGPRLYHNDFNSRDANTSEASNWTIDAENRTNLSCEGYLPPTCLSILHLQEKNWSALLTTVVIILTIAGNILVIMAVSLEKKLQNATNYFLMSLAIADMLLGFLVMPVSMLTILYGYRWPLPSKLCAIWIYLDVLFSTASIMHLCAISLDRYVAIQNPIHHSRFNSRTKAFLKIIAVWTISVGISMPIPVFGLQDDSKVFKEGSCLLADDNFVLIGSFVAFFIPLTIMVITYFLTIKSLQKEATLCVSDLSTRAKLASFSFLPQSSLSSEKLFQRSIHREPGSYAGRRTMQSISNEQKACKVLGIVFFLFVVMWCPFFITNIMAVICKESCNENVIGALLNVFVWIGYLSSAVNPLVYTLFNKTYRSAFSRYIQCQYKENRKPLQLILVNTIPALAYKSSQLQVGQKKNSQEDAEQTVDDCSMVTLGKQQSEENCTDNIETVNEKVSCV
T3 sequence (P28223 whole entry): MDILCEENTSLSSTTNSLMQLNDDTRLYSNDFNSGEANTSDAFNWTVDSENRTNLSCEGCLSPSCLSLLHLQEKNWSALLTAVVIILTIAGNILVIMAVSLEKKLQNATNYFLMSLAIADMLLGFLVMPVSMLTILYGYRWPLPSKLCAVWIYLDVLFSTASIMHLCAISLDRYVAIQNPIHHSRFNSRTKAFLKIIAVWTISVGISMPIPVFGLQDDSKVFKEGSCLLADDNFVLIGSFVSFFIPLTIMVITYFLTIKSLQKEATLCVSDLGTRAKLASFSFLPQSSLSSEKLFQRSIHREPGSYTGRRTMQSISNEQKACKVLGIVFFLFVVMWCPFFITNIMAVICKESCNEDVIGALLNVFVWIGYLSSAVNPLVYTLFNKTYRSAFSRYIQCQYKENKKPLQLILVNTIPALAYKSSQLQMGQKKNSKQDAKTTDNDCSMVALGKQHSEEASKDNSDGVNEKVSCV

By ED50 is commonly meant the dose at which the effect has come halfway, by size or by number of responders. For `Cc1ccc2c(c1)-c1c(ccn1C[C@H](C)N)C2(C)C.O=C(O)/C=C/C(=O)O` [Example 1, (S)-2-(4,4,7-trimethyl-1,4-dihydro-indeno[1,2-b]pyrrol-1-yl)-1-methyl-ethylamine fumarate (1:1)], the Ki on human-5HT1A receptors was 2190 nM; on 5HT2C receptor [1], 3.24 nM; at 5HT2A receptor [3], 53.7 nM. In addition, at 5HT2C receptor [2] (setting [6]), the ED50 was determined as 0.9 mg/kg.
On to `CCc1ccc2c(c1)-c1c(ccn1C[C@H](C)N)C2` [Example 17, (S)-2-(7-ethyl-1,4-dihydro-indeno[1,2-b]pyrrol-1-yl)-1-methyl-ethylamine fumarate (1:0.5)], for which the Ki on human-5HT1A receptors (setting [7]) was 10000 nM; on 5HT2C receptor [1] it was 18.2 nM; at 5HT2A receptor [3], 562 nM.
The matching figures for `Cc1ccc2c(c1)-c1c(ccn1C[C@H](C)N)C21CCCC1` [Example 44, (S)-1-methyl-2-(7'-methyl-1',4'-dihydro-spiro[cyclopentane]-1,4'-indeno[1,2-b]pyrrol-1-yl)-ethylamine fumarate (1:1)]: 1860 nM, 79.4 nM and 269 nM.
By IC50 is commonly meant the concentration that gives 50% inhibition. `COc1ccc2c(c1)-c1c(ccn1C[C@H](C)N)C2` [Example 3, (S)-2-(7-methoxy-1,4-dihydro-indeno[1,2-b]pyrrol-1-yl)-1-methyl-ethylaminefumarate (1:0.5)]: the IC50 at 5HT2A receptor [4] was 2160 nM; on 5HT1A receptor it was 2830 nM; at 5HT2C receptor [5], 11.4 nM. Besides, the results for the Ki at 5HT2C receptor [1] and at 5HT2A receptor [3] were 6.92 nM and 75.9 nM, respectively. Moreover, the ED50 on 5HT2C receptor [2] (setting [6]) came to 1.2 mg/kg.
On to `COc1ccc2c(c1)-c1c(ccn1C[C@H](C)N)C2(C)C.O=C(O)/C=C/C(=O)O` [Example 2, (S)-2-(7-methoxy-4,4-dimethyl-1,4-dihydro-indeno[1,2-b]pyrrol-1-yl)-1-methyl-ethylamine fumarate (1:1)], for which the figures for the Ki on human-5HT1A receptors, on 5HT2C receptor [1] and on 5HT2A receptor [3] were 4070 nM, 0.363 nM and 9.33 nM, respectively. Further, the ED50 on 5HT2C receptor [2] (setting [6]) came out at 0.5 mg/kg.
Regarding `COc1ccc2c(c1)-c1c(ccn1C[C@H](C)N)CC2.O=C(O)/C=C/C(=O)O` [Example 5, (S)-2-(4,5-dihydro-8-methoxy-1H-benz[g]indol-1-yl)-1-methyl-ethylamine fumarate (1:1)], the IC50 on 5HT2A receptor [4] amounted to 591 nM; at 5HT1A receptor it was 2560 nM; at 5HT2C receptor [5] it was 20.2 nM. On 5HT2C receptor [2], the ED50 was 3.20 mg/kg, s.c.
For the compound `COc1cc2c(cc1Cl)C(C)(C)c1ccn(C[C@H](C)N)c1-2` [Example 26, (S)-2-(6-chloro-7-methoxy-4,4-dimethyl-1,4-dihydro-indeno[1,2-b]pyrrol-1-yl)-1-methyl-ethylamine fumarate (1:1)], the results for the Ki on human-5HT1A receptors, at 5HT2C receptor [1] (setting [8]) and at 5HT2A receptor [3] were 5620 nM, 26.3 nM and 67.6 nM, respectively.
In the case of `C[C@H](N)Cn1ccc2c1-c1cc(Cl)ccc1C2` [Example 4, (S)-2-(7-chloro-1,4-dihydro-indeno[1,2-b]pyrrol-1-yl)-1-methyl-ethylamine fumarate (1:0.5)], the results for the IC50 at 5HT2A receptor [4], at 5HT1A receptor and at 5HT2C receptor [5] were 2170 nM, 3230 nM and 49.3 nM, respectively. Further, the ED50 on 5HT2C receptor [2] (setting [6]) is 2.7 mg/kg.
With `CCc1ccc2c(c1)-c1c(ccn1C[C@H](C)N)C2(C)C` [Example 8, (S)-2-(7-ethyl-4,4-dimethyl-1,4-dihydro-indeno[1,2-b]pyrrol-1-yl)-1-methyl-ethylamine fumarate (1:1)], the values for the Ki on human-5HT1A receptors, on 5HT2C receptor [1] (setting [8]) and on 5HT2A receptor [3] were 4570 nM, 2.34 nM and 66.1 nM, respectively.
As for `C[C@H](N)Cn1ccc2c1-c1cc(F)c(F)cc1C2` [Example 25, (S)-2-(6,7-difluoro-1,4-dihydro-indeno[1,2-b]pyrrol-1-yl)-1-methyl-ethylamine fumarate (1:1)], the Ki on human-5HT1A receptors was 10000 nM; on 5HT2C receptor [1] (setting [8]) it was 41.7 nM; on 5HT2A receptor [3], 550 nM.
Taken in the same sequence, the figures for `CC(N)Cn1ccc2c1-c1cccc(Cl)c1C2` (racemic) [Example 37, (RS)-2-(5-chloro-1,4-dihydro-indeno[1,2-b]pyrrol-1-yl)-1-methyl-ethylaminefumarate (1:0.5)] were 4790 nM, 35.5 nM and 309 nM.
Taken in the same sequence, the figures for `CCC1(CC)c2ccc(OC)cc2-c2c1ccn2C[C@H](C)N` [Example 12, (S)-2-(7-methoxy-4,4-diethyl-1,4-dihydro-indeno[1,2-b]pyrrol-1-yl)-1-methyl-ethylamine fumarate (1:0.5)] were 10000 nM, 10 nM and 115 nM.
In the case of `Cc1cccc2c1Cc1ccn(CC(C)N)c1-2` (racemic) [Example 50, (RS)-2-(5-methyl-1,4-dihydro-indeno[1,2-b]pyrrol-1-yl)-1-methyl-ethylaminefumarate (1:0.5)], the Ki at human-5HT1A receptors (setting [7]) was 2400 nM; at 5HT2C receptor [1], 107 nM; at 5HT2A receptor [3], 447 nM.
`C[C@H](N)Cn1ccc2c1-c1cc(-c3ccccc3)ccc1C2` [Example 14, (S)-2-(7-phenyl-1,4-dihydro-indeno[1,2-b]pyrrol-1-yl)-1-methyl-ethylamine fumarate (1:0.5)]: the Ki on human-5HT1A receptors (setting [7]) is 10000 nM; on 5HT2C receptor [1], 16.6 nM; at 5HT2A receptor [3], 24 nM.
